The values that follow are results of earlier work, collected in patent US20190135859A1, “METHOD OF MANUFACTURING A PHARMACEUTICAL COMPOSITION” (FERRING B.V., priority 2017, published 2019).

Each structure is given as a SMILES string. Starred links: 1 amine or outer side, 2 acyl side, 3 side chain; linkers in the order of their positions; H or OH if unused. Positions of bridges follow the written chain, without caps; N, C: chain ends. Residues, ends and D or L forms follow the SMILES beside them. X1 = O=C(CCC[*:2])[*:1]

The subject of data set [1] is human oxytocin (hOT) receptor versus human V2 (hV2) receptor. Conditions: ratio of EC50 values; see Table 2 in WO2009/122285.
Data set [2] deals with Prader-Willi Syndrome patients. Conditions: after 15 days, versus placebo treated patients, as described in WO2016/044131.

Consider `CC[C@H](C)[C@@H]1NC(=O)[C@H](Cc2ccc(OC)cc2)NC(=O)CCCSC[C@@H](C(=O)N2CCC[C@H]2C(=O)N[C@@H](CC(C)C)C(=O)NCC(N)=O)NC(=O)[C@H](CC(N)=O)NC(=O)[C@H](CCC(N)=O)NC1=O` [carbetocin, (1-desamino-1-monocarba-2(O-methyl)-tyrosine)oxytocin] (Y(Me)IQNCPLG-NH2; linker N-5 via X1), for which, in data set [1], the “hV2/hOT selectivity ratio (EC50 hV2/EC50 hOT)” value was 244. In addition, in data set [2], the “improvement over placebo in measurements of hyperphagia, obsessive compulsive disorder, food seeking behaviour and clinical global impression” value was “statistically significant improvement”.

In the case of `CC[C@H](C)[C@@H]1NC(=O)[C@H](Cc2ccc(O)cc2)NC(=O)[C@@H](N)CSSC[C@@H](C(=O)N2CCC[C@H]2C(=O)N[C@@H](CC(C)C)C(=O)NCC(N)=O)NC(=O)[C@H](CC(N)=O)NC(=O)[C@H](CCC(N)=O)NC1=O` [Oxytocin, oxytocin], in data set [1], the “hV2/hOT selectivity ratio (EC50 hV2/EC50 hOT)” value was 3.
